Data: US10017523B2, “NAMPT inhibitors and methods” (Genzyme Corporation, priority 2014, dated 2018)
pIC50: −log10 of the molar value.

What was measured:
[1] = test system: Sup-B15 cells; experiment: Mechanism of action: NMN rescue of viability; type: cell-based, human; settings: 200 μM NMN, 72 hours
Method: Sup-B15 cells (ATCC) were incubated in media lacking or containing 200 μM nicotinamide mononucleotide (NMN) (Sigma) in the absence or presence of inhibitor for 72 hours at 37° C./5% CO2 prior to viability determination using CellTiterGlo (Promega) per manufacturer's instruction.

[2] = test system: HCT116 solid tumor model; experiment: HCT116 tumor growth study; type: in vivo, Female athymic nude mice; settings: oral twice daily
Method: Tumor Growth Study: Female athymic nude mice (Crl:NU(Ncr)-Foxn1nu, Charles River) (n=10/group) were injected with 5×10^6 HCT116 cells, and treatment was initiated at average tumor size of 100 mm^3. 4-(1′-isopropyl-4-oxospiro[chroman-2,4′-piperidin]-6-yl)-N-((3-methylisoxazol-5-yl)methyl)benzamide and vehicle control were administered orally twice daily for 8 days. Tumor size was measured twice weekly with calipers.
4-(1′-isopropyl-4-oxospiro[chroman-2,4′-piperidin]-6-yl)-N-((3-methylisoxazol-5-yl)methyl)benzamide was also tested in the HCT116 solid tumor model.

[3] = molecular target: T1, Recombinant NAMPT enzyme (Homo sapiens, UniProt P43490); experiment: Inhibition of NAMPT enzymatic activity; type: biochemical; settings: for pIC50: 6 hours at 37° C., NMN product detected
T1 construct: purchased MBL
Method: Recombinant NAMPT enzyme (MBL) was briefly pre-incubated in the absence or presence of inhibitor followed by addition of nicotinamide. Enzymatic reaction was allowed to proceed for 6 hours at 37° C. Reaction was terminated and NMN reaction product detected using the method as described in: Zhang R Y, Qin Y, Lv X Q, Wang P, Xu T Y, Zhang L, Miao C Y., Anal. Biochem. 2011 May 1; 412(1):18-25.
(§1) The 50% inhibitory concentration (IC50) is the concentration at which 50% of the maximal activity was inhibited.

[4] = test system: NALM6 leukemia model; experiment: NALM6 leukemia study (survival); type: in vivo, female CB17SCID/Crl mice; settings: i.p. twice daily for 35 days, compared with clofarabine
Method: 4-(1′-isopropyl-4-oxospiro[chroman-2,4′-piperidin]-6-yl)-N-((3-methylisoxazol-5-yl)methyl)benzamide was tested in the NALM6 leukemia model. […] 5×10^^6 NALM-6 cells were injected via tail vein into female CB17SCID/Crl mice (Charles River). One week later, 4-(1′-isopropyl-4-oxospiro[chroman-2,4′-piperidin]-6-yl)-N-((3-methylisoxazol-5-yl)methyl)benzamide was administered by i.p. injection twice daily for 35 days. Clofarabine was administered once daily by i.p. injection once daily for 5 days for four weeks. Study endpoint was survival time, and mice were sacrificed upon appearance of systemic signs of severe disease such as paralysis or cachexia.

[5] = molecular target: T2, Sup-B15 cell extract (Homo sapiens, UniProt P43490); experiment: Chemical proteomics pull-down from Sup-B15 cell extract; type: binding; settings: biotinylated derivative, streptavidin beads, elution with free compound, LC/MS
T2 construct: host or cells: Sup-B15 cells
Method: Chemical proteomics. Sup-B15 cell extract was incubated with a biotinylated derivative of 4-(1′-isopropyl-4-oxospiro[chroman-2,4′-piperidin]-6-yl)-N-((3-methylisoxazol-5-yl)methyl)benzamide, followed by collection of compound/protein complexes with streptavidin beads (Invitrogen). […] Following SDS-PAGE, one prominent band was excised and identified by LC/MS as NAMPT.

[6] = test system: acute T-cell leukemia (JURKAT); experiment: Anti-proliferative activity on JURKAT cell line; type: cell-based; settings: Homo sapiens, 72 h, CellTiterGlo
Method: (§2) Leukemia/Lymphoma cell lines (ATCC) were diluted in vendor-recommended media and incubated in the absence or presence of inhibitor for 72 hours at 37° C./5% CO2 prior to viability determination using CellTiterGlo (Promega) per manufacturer's instruction. The human cell lines studied include acute T-cell leukemia (JURKAT), chronic myelogenous leukemia (K562), and B-cell acute lymphocytic leukemia (NALM6 and SUP-B15).

[7] = test system: B-cell acute lymphocytic leukemia (NALM6); experiment: Anti-proliferative activity on NALM6 cell line; type: cell-based; settings: Homo sapiens, NALM-6, 72 h, CellTiterGlo
Method: as §2

[8] = test system: primary human B cells; experiment: Anti-proliferative activity on B cells (anti-IgM stimulated, CellTiterGlo); type: cell-based; settings: B-cell, 72 h, anti-IgM 10 ug/ml
Method: (§3) Fresh primary human B cells obtained from Analytical Biological Services (Wilmington, Del.) were diluted to 1×10^^6 cells per ml in AIM-V medium (Invitrogen), and stimulated with anti-IgM (10 ug/ml) (KPL) in the absence or presence of inhibitor for 72 hours at 37° C./5% CO2 prior to viability determination using CellTiterGlo (Promega) per manufacturer's instruction.
as §1

[9] = test system: B-cell acute lymphocytic leukemia (SUP-B15); experiment: Anti-proliferative activity on SUP-B15 cell line; type: cell-based; settings: Homo sapiens, SUP-B15, 72 h, CellTiterGlo
Method: as §2

[10] = test system: primary human T cells; experiment: Anti-proliferative activity on T cells (CD3/CD28 stimulated, CellTiterGlo); type: cell-based; settings: T-cell, 72 h, CD3/CD28 beads
Method: as §3, with “human T” for “human B”, “with CD3/CD28 beads (Invitrogen)” for “with anti-IgM (10 ug/ml) (KPL)”
as §1

[11] = test system: chronic myelogenous leukemia (K562); experiment: Anti-proliferative activity on K562 cell line; type: cell-based; settings: Homo sapiens, K562, 72 h, CellTiterGlo
Method: as §2

T1 sequence (P43490 whole entry): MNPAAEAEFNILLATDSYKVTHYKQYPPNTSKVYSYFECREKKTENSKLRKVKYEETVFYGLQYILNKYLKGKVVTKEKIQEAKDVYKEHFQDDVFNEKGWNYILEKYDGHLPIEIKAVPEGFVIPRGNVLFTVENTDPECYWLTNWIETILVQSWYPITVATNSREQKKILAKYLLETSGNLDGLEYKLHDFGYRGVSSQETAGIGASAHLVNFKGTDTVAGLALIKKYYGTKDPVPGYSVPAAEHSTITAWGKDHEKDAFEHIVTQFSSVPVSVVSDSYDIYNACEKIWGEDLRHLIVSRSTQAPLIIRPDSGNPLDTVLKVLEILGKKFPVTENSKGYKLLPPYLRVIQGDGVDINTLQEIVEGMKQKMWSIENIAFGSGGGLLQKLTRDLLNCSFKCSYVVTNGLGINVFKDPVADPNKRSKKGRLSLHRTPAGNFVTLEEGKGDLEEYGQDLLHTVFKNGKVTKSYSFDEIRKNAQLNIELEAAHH
T2 sequence (P43490 whole entry): as above

Compound | pIC50 [3] | pIC50 [6] | pIC50 [7] | pIC50 [9] | pIC50 [11] | effect of NMN on anti-proliferative activity [1] | mortality in the treated group [2] | persistence of tumor growth delay after dosing was stopped [2] | tumor growth [2] | inhibition of NAMPT enzyme activity [3] | survival [4] | molecular target identified [5] | pIC50 [8] | pIC50 [10]
Cc1cc(CNC(=O)c2ccc(-c3ccc4c(c3)C(=O)CC3(CCN(C(C)C)CC3)O4)cc2)on1 [4-(1′-isopropyl-4-oxospiro[chroman-2,4′-piperidin]-6-yl)-N-((3-methylisoxazol-5-yl)methyl)benzamide] | 9.05 | 7.75 | 7.82 | 8.61 | 7.17 | counteracted by NMN | 10% | persisted for at least one week after dosing was stopped | significant tumor growth delay | potently inhibits NAMPT enzyme activity | significant survival benefit in this xenograft model, in excess of the standard of care (clofarabine) | nicotinamide phosphoribosyl transferase (NAMPT) | 7.64 | 5.36
Cc1cc(CNC(=O)c2ccc(-c3ccc4c(c3)C(=O)NC3(CCN(C(C)C)CC3)O4)nc2)on1 [6-(1′-isopropyl-4-oxo-3,4-dihydrospiro[benzo[e][1,3]oxazine-2,4′-piperidin]-6-yl)-N-((3-methylisoxazol-5-yl)methyl)nicotinamide] | 8.52 | 7.61 | 7.77 | 8.50 | 6.06 |  |  |  |  |  |  |  | 7.53 | 4.84
Cc1ccc(CNC(=O)c2ccc(-c3ccc4c(c3)C(=O)N(C)C3(CCN(C(C)C)CC3)O4)cc2)cn1 [4-(1′-isopropyl-3-methyl-4-oxo-3,4-dihydrospiro[benzo[e][1,3]oxazine-2,4′-piperidin]-6-yl)-N-((6-methylpyridin-3-yl)methyl)benzamide] | 8.70 | 8.12 | 8.28 | 9.18 | 7.55 |  |  |  |  |  |  |  | 7.82 | 5.34

More lines, main results first:

pIC50 [3] | pIC50 [6] | pIC50 [7] | pIC50 [9] | pIC50 [11] | Compound | effect of NMN on anti-proliferative activity [1] | mortality in the treated group [2] | persistence of tumor growth delay after dosing was stopped [2] | tumor growth [2] | inhibition of NAMPT enzyme activity [3] | survival [4] | molecular target identified [5] | pIC50 [8] | pIC50 [10]
8.46 | 8.15 | 8.45 | 9.22 | 7.55 | CC(C)N1CCC2(CC1)Oc1ccc(-c3ccc(C(=O)NCc4cncc(F)c4)cc3)cc1C(=O)N2C [N-((5-fluoropyridin-3-yl)methyl)-4-(1′-isopropyl-3-methyl-4-oxo-3,4-dihydrospiro[benzo[e][1,3]oxazine-2,4′-piperidin]-6-yl)benzamide] |  |  |  |  |  |  |  | 8.22 | 6.00
8.52 | 8.15 | 8.50 | 9.25 | 7.73 | CCCN1CCC2(CC1)CC(=O)c1cc(-c3ccc(C(=O)NCc4cncc(F)c4)cc3)ccc1O2 [N-((5-fluoropyridin-3-yl)methyl)-4-(4-oxo-1′-propylspiro[chroman-2,4′-piperidin]-6-yl)benzamide] |  |  |  |  |  |  |  | 8.13 | 5.71
